Experimental data as given in ChEMBL document CHEMBL3244202, “Synthesis and analgesic-antiinflammatory activity of some 4- and 5-substituted heteroarylsalicylic acids” (J Med Chem, 1978).
Values after ≈ are worked out from the molar mass of the structure shown.

Key:
[1] = Aqueous solubility of the compound in phosphate buffer at pH 7; type: physicochemical
Rattus norvegicus [2] = assay: Antiinflammatory activity in po dosed rat assessed as inhibition of carrageenan-induced paw edema; type: functional
Rattus norvegicus [3] = assay: Analgesic activity in po dosed rat by hyperesthesia test; type: functional
Rattus norvegicus [4] = assay: Antiinflammatory activity in po dosed rat assessed as reduction in adjuvant arthritis-induced lesion administered for 1 to 14 days measured on day 14; type: functional
Canis familiaris = assay: Antiinflammatory activity in po dosed dog assessed as reduction in urate synovitis measured after 2 hrs; type: functional; settings: Canis lupus familiaris
Homo sapiens = species on record: Homo sapiens; assay: Inhibition of prostaglandin synthetase (unknown origin)
Rattus norvegicus [5] = assay: Antipyretic activity in po dosed rat assessed as dose required to produce drop in body temperature of 1 degC administered on days 17 to 20 measured on day 20; type: functional; settings: 480 h
Rattus norvegicus [6] = assay: Antiinflammatory activity in po dosed Wistar rat assessed as reduction in adjuvant arthritis-induced lesion administered on days -1 through 1 measured on days 0 and 14
Rattus norvegicus [7] = assay: Gastrointestinal toxicity in rat assessed as gastric hemorrhage administered on days 17 to 20 measured on day 20; type: organism-based, Stomach; settings: in vivo
Rattus norvegicus [8] = assay: Antiinflammatory activity in po dosed rat assessed as reduction in adjuvant arthritis-induced lesion administered on days 17 to 20 post adjuvant arthritis-challenge measured on day 20; type: functional; settings: 480 h
Rattus norvegicus [9] = assay: Antipyretic activity in po dosed rat administered on days 17 to 20 measured on day 20; settings: 480 h

Structure (SMILES) | ED50 (Rattus norvegicus [2]) [mg/kg] | also measured
O=C(O)c1cc(-c2c[nH]cn2)ccc1O | 100 | solubility [1]: 1100 µg/mL (≈ 5.39 mM)
O=C(O)c1cc(-c2ccno2)ccc1O | 110 | 
O=C(O)c1ccccc1O [SALICYLIC ACID] | 200 | ED50 (Rattus norvegicus [3]): > 150 mg/kg
O=C(O)c1cc(-c2cnco2)ccc1O | > 200 | 
O=C(O)c1cc(-n2cnnc2)ccc1O | > 250 | 
O=C(O)c1cc(-n2cccc2)ccc1O | 50 | solubility [1]: 8600 µg/mL (≈ 42.3 mM); ED50 (Rattus norvegicus [4]): 64 mg/kg; ED50 (Canis familiaris): 39 mg/kg; ID50 (Homo sapiens): 0.3 µg/mL (≈ 0.00148 mM); ED10 (Rattus norvegicus [5]): 401 mg/kg; ED50 (Rattus norvegicus [6]): 58 mg/kg; ED50 (Rattus norvegicus [7]): > 800 mg/kg; ED50 (Rattus norvegicus [3]): 30 mg/kg; ED50 (Rattus norvegicus [8]): 35 mg/kg
O=C(O)c1cc(-c2ncco2)ccc1O | 100 | solubility [1]: 6000 µg/mL (≈ 29.2 mM)
O=C(O)c1cc(-n2cncn2)ccc1O | 200 | 
O=C(O)c1ccc(-c2cscn2)cc1O | 70 | solubility [1]: 8700 µg/mL (≈ 39.3 mM); ED50 (Rattus norvegicus [3]): > 80 mg/kg
O=C(O)c1cc(-c2ccns2)ccc1O | 80 | solubility [1]: 7300 µg/mL (≈ 33 mM); ED50 (Rattus norvegicus [3]): > 80 mg/kg
O=C(O)c1cc(-c2ccncn2)ccc1O | > 200 | 
O=C(O)c1cc(-c2cccs2)ccc1O | 60 | solubility [1]: 7000 µg/mL (≈ 31.8 mM)
O=C(O)c1cc(-c2ccc(F)cc2F)ccc1O [DIFLUNISAL] | 9.8 | ED50 (Rattus norvegicus [3]): 4.6 mg/kg
CC(=O)Oc1ccc(-n2cccc2)cc1C(=O)O | 42 | ED50 (Rattus norvegicus [3]): 35 mg/kg
O=C(O)c1cc(-c2ncccn2)ccc1O | 100 | solubility [1]: 6000 µg/mL (≈ 27.8 mM)
O=C(O)c1cc(C2N=NN=N2)ccc1O | 110 | solubility [1]: 1700 µg/mL (≈ 8.25 mM)
O=C(O)c1cc(-c2cccnc2)ccc1O | > 250 | 

Structure (SMILES) | ED50 (Rattus norvegicus [2]) [mg/kg] | also measured
O=C(O)c1cc(-c2cncs2)ccc1O | > 200 | 
CC(=O)Oc1ccccc1C(=O)O [ASPIRIN] | 90 | ED50 (Rattus norvegicus [4]): 33 mg/kg; ED50 (Canis familiaris): 68 mg/kg; ED50 (Rattus norvegicus [9]): 43 mg/kg; ID50 (Homo sapiens): 5 µg/mL (≈ 0.0278 mM); ED50 (Rattus norvegicus [6]): 46 mg/kg; ED50 (Rattus norvegicus [7]): 16 mg/kg; ED50 (Rattus norvegicus [3]): 90 mg/kg; ED50 (Rattus norvegicus [8]): 25 mg/kg
O=C(O)c1cc(-c2cscn2)ccc1O | 95 | solubility [1]: 2700 µg/mL (≈ 12.2 mM); ED50 (Rattus norvegicus [3]): 90 mg/kg
O=C(O)c1cc(-n2ccnn2)ccc1O | 150 | 
O=C(O)c1cc(-n2nccn2)ccc1O | 150 | 
O=C(O)c1cc(-c2ncc[nH]2)ccc1O | 200 | 
O=C(O)c1cc(-c2ccccn2)ccc1O | 200 | 
CCCCOC(=O)Oc1ccc(-n2cccc2)cc1C(=O)O | 52 | ED50 (Rattus norvegicus [3]): 38 mg/kg
O=C(O)c1ccc(-c2nccs2)cc1O | 110 | 
O=C(O)c1cc(-n2cccn2)ccc1O | 200 | 
O=C(O)c1cc(-c2cc[nH]n2)ccc1O | > 250 | 
O=C(O)c1cc(-c2csnn2)ccc1O | > 200 | 
O=C(O)c1ccc(-c2ncco2)cc1O | > 250 | 
O=C(O)c1cc(-n2ccnc2)ccc1O | 75 | solubility [1]: 2000 µg/mL (≈ 9.8 mM); ED50 (Rattus norvegicus [3]): 65 mg/kg
O=C(O)c1ccc(-n2cccc2)cc1O | 200 | 
O=C(O)c1cc(-c2cocn2)ccc1O | 110 | 
O=C(O)c1cc(-c2nccs2)ccc1O | > 250 | 
